PubChem BioAssay AID192 (DTP/NCI, 2004)
Several values for one entry are separate records, joined by “and”; a condition that tells them apart may be missing. Equal entries are not always repeated. Toxic doses and inconclusive results are not listed. Peptide text beside a SMILES is read from it.

Tested on: BDF1 mice, B16 melanoma ip, median survival T/C
Test: NCI In Vivo Anticancer Drug Screen. Data for tumor model B16 Melanoma (intraperitoneal) in B6D2F1 (BDF1) mice
Conditions: endpoint: median survival time, higher = longer survival
Summary of the method: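 Read-out: survival or tumor size, given as treated/control ratio. Controls received vehicle only; animals bore transplantable tumors.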

[1] = dose: 25.0 mg/kg/injection, schedule: Q01DX009 (ip), vehicle: saline
[2] = dose: 50.0 mg/kg/injection, schedule: Q01DX009 (ip), vehicle: saline
[3] = dose: 100.0 mg/kg/injection, schedule: Q01DX009 (ip), vehicle: saline
[4] = dose: 200.0 mg/kg/injection, schedule: Q01DX009 (ip), vehicle: saline
[5] = dose: 400.0 mg/kg/injection, schedule: Q01DX009 (ip), vehicle: saline
[6] = dose: 100.0 mg/kg/injection, schedule: Q01DX009 (ip), vehicle: saline with Tween-80
[7] = dose: 200.0 mg/kg/injection, schedule: Q01DX009 (ip), vehicle: saline with Tween-80
[8] = dose: 100.0 mg/kg/injection, schedule: Q01DX009 (ip), vehicle: Klucel (hydroxypropylcellulose) (HPC)
[9] = dose: 200.0 mg/kg/injection, schedule: Q01DX009 (ip), vehicle: Klucel (hydroxypropylcellulose) (HPC)
[10] = dose: 400.0 mg/kg/injection, schedule: Q01DX009 (ip), vehicle: Klucel (hydroxypropylcellulose) (HPC)
[11] = dose: 3.12 mg/kg/injection, schedule: Q01DX009 (ip), vehicle: saline
[12] = dose: 6.25 mg/kg/injection, schedule: Q01DX009 (ip), vehicle: saline
[13] = dose: 12.5 mg/kg/injection, schedule: Q01DX009 (ip), vehicle: saline
[14] = dose: 6.25 mg/kg/injection, schedule: Q01DX009 (ip), vehicle: Klucel (hydroxypropylcellulose) (HPC)
[15] = dose: 12.5 mg/kg/injection, schedule: Q01DX009 (ip), vehicle: Klucel (hydroxypropylcellulose) (HPC)
[16] = dose: 25.0 mg/kg/injection, schedule: Q01DX009 (ip), vehicle: Klucel (hydroxypropylcellulose) (HPC)
[17] = dose: 50.0 mg/kg/injection, schedule: Q01DX009 (ip), vehicle: Klucel (hydroxypropylcellulose) (HPC)

With `NC(N)=NCCCC(N)C(=O)NC(CCC(=O)O)C(=O)O` (stereo not drawn) (H-Arg-Glu-OH; configuration not given here) the T/C [1] was 108 % of control, the T/C [2] was 96 % of control and the T/C [3] was 104 % of control. The T/C [4] was 102 % of control and the T/C [5] was 101 % of control.

With `CN1CCN(Cc2nc3cccc4c3c([n+]2[O-])-c2ccccc2-4)CC1` the T/C (dose: 12.5 mg/kg/injection, schedule: Q01DX009 (ip), vehicle: saline with Tween-80) was 101 % of control, the T/C (dose: 25.0 mg/kg/injection, schedule: Q01DX009 (ip), vehicle: saline with Tween-80) was 95 % of control and the T/C (dose: 50.0 mg/kg/injection, schedule: Q01DX009 (ip), vehicle: saline with Tween-80) was 105 % of control. The T/C [6] was 112 % of control and the T/C [7] was 116 % of control.

In the case of `Cc1ccc(C)c(NC(=O)c2ccccc2Cl)c1`, the T/C [8] is reported as 118 % of control, the T/C [9] is reported as 93 % of control and the T/C [10] is reported as 109 % of control.

In the case of `CSCCC(N)C(=O)NC(CC(N)=O)C(=O)O` (stereo not drawn) (H-Met-Asn-OH; configuration not given here), the T/C [1] is reported as 103 % of control, the T/C [2] is reported as 108 % of control and the T/C [3] is reported as 96 % of control. For the same compound, the T/C [4] was 89 % of control.

In the case of `CC(C(=O)N1c2ccccc2Sc2ccccc21)[N+]1(C)CCCC1` (centres undefined), the T/C [11] is reported as 93 % of control, the T/C [12] is reported as 93 % of control and the T/C [13] is reported as 95 % of control. The T/C [1] was 91 % of control and the T/C [2] was 100 % of control.

For `Cc1cc(Cl)ccc1NS(=O)(=O)c1ccccc1`, the T/C [8] was 88 % of control and the T/C [9] was 88 % of control.

`CCc1nc(N)nc(N)c1-c1ccc(Cl)c(Cl)c1` was tested, and the T/C (dose: 4.0 mg/kg/injection, schedule: Q01DX009 (ip), vehicle: Klucel (hydroxypropylcellulose) (HPC)) was 95 % of control, the T/C (dose: 8.0 mg/kg/injection, schedule: Q01DX009 (sc), vehicle: Klucel (hydroxypropylcellulose) (HPC)) was 123 % of control and the T/C (dose: 64.0 mg/kg/injection, schedule: Q01DX001 (ip), vehicle: Klucel (hydroxypropylcellulose) (HPC)) was 102 % of control.

For `CCN(CC)CC#CCCCCN(CC)CC`, the T/C (dose: 3.13 mg/kg/injection, schedule: Q01DX009 (ip), vehicle: saline) was 95 % of control, the T/C [12] was 97 % of control and the T/C [13] was 90 % of control. For the same compound, the T/C [2] was 89 % of control.

For `C=C1C(=O)O[C@H]2/C=C(/C)C3=CC(=O)[C@@](C)(C[C@@H](OC(=O)/C(C)=C\C)C12)O3` (some centres undefined), the T/C (dose: 0.75 mg/kg/injection, schedule: Q01DX009 (ip), vehicle: Klucel (hydroxypropylcellulose) (HPC)) was 98 % of control, the T/C (dose: 1.5 mg/kg/injection, schedule: Q01DX009 (ip), vehicle: Klucel (hydroxypropylcellulose) (HPC)) was 93 % of control and the T/C (dose: 3.0 mg/kg/injection, schedule: Q01DX009 (ip), vehicle: Klucel (hydroxypropylcellulose) (HPC)) was 88 % of control. The T/C (dose: 6.0 mg/kg/injection, schedule: Q01DX009 (ip), vehicle: Klucel (hydroxypropylcellulose) (HPC)) was 91 % of control and the T/C (dose: 12.0 mg/kg/injection, schedule: Q01DX009 (ip), vehicle: Klucel (hydroxypropylcellulose) (HPC)) was 90 % of control.

For `O=C1N(Cl)C(=O)C(c2ccc(Cl)cc2)(c2ccc(Cl)cc2)N1Cl`, the T/C (dose: 1.56 mg/kg/injection, schedule: Q01DX009 (ip), vehicle: Klucel (hydroxypropylcellulose) (HPC)) was 104 % of control, the T/C (dose: 3.12 mg/kg/injection, schedule: Q01DX009 (ip), vehicle: Klucel (hydroxypropylcellulose) (HPC)) was 96 % of control and the T/C [14] was 104 % of control. For the same compound, the T/C [15] was 104 % of control, the T/C [16] was 114 % of control and 101 % of control and the T/C (dose: 25.0 mg/kg/injection, schedule: Q02DX009 (ip), vehicle: Klucel (hydroxypropylcellulose) (HPC)) was 103 % of control. For the same compound, the T/C [17] was 112 % of control, the T/C (dose: 50.0 mg/kg/injection, schedule: Q02DX009 (ip), vehicle: Klucel (hydroxypropylcellulose) (HPC)) was 99 % of control and the T/C [8] was 118 % of control. For the same compound, the T/C (dose: 100.0 mg/kg/injection, schedule: Q02DX009 (ip), vehicle: Klucel (hydroxypropylcellulose) (HPC)) was 106 % of control, the T/C [9] was 117 % of control and the T/C (dose: 200.0 mg/kg/injection, schedule: Q02DX009 (ip), vehicle: Klucel (hydroxypropylcellulose) (HPC)) was 96 % of control. The T/C [10] was 118 % of control.

For `C1CCc2nnnn2CC1`, the T/C (dose: 1.56 mg/kg/injection, schedule: Q04DX003 (ip), vehicle: saline) was 111 % of control, the T/C [11] was 113 % of control and the T/C (dose: 3.12 mg/kg/injection, schedule: Q04DX003 (ip), vehicle: saline) was 110 % of control. The T/C [12] was 102 % of control, the T/C (dose: 6.25 mg/kg/injection, schedule: Q04DX003 (ip), vehicle: saline) was 106 % of control and the T/C [13] was 102 % of control. For the same compound, the T/C (dose: 12.5 mg/kg/injection, schedule: Q04DX003 (ip), vehicle: saline) was 103 % of control, the T/C [1] was 88 % of control and the T/C (dose: 25.0 mg/kg/injection, schedule: Q04DX003 (ip), vehicle: saline) was 103 % of control and 111 % of control. The T/C (dose: 50.0 mg/kg/injection, schedule: Q04DX003 (ip), vehicle: saline) was 105 % of control.

In the case of `O=C(CC(CC(=O)c1ccccc1)c1ccco1)c1ccccc1`, the T/C [8] is reported as 93 % of control, the T/C [9] is reported as 93 % of control and the T/C [10] is reported as 93 % of control.

For `Cc1ccc(Nc2ccc([N+](=O)[O-])cc2[N+](=O)[O-])cc1C`, the T/C [8] was 98 % of control, the T/C [9] was 97 % of control and the T/C [10] was 96 % of control.

With `Cc1nc(N)[nH]c(=O)c1Br` the T/C (dose: 100.0 mg/kg/injection, schedule: Q04DX003 (ip), vehicle: Klucel (hydroxypropylcellulose) (HPC)) was 97 % of control, the T/C (dose: 200.0 mg/kg/injection, schedule: Q04DX003 (ip), vehicle: Klucel (hydroxypropylcellulose) (HPC)) was 93 % of control and the T/C (dose: 400.0 mg/kg/injection, schedule: Q04DX003 (ip), vehicle: Klucel (hydroxypropylcellulose) (HPC)) was 89 % of control.

`Clc1ccc2sc3c(c2c1)CCNC3` was tested, and the T/C [15] was 94 % of control, the T/C [16] was 111 % of control and the T/C [17] was 111 % of control. The T/C [8] was 105 % of control.

With `Cc1c2cc[n+](C)cc2c(C)c2c1[nH]c1ccc(O)cc12` the T/C (dose: 0.06 mg/kg/injection, schedule: Q01DX009 (ip), vehicle: water) was 111 % of control and the T/C (dose: 0.25 mg/kg/injection, schedule: Q01DX009 (ip), vehicle: water) was 158 % of control.

`O=C(COc1ccccc1)CC(O)(C(F)(F)F)C(F)(F)F` was tested, and the T/C (dose: 100.0 mg/kg/injection, schedule: Q04DX003 (ip), vehicle: saline with Tween-80) was 100 % of control, the T/C (dose: 200.0 mg/kg/injection, schedule: Q04DX003 (ip), vehicle: saline with Tween-80) was 92 % of control and the T/C (dose: 400.0 mg/kg/injection, schedule: Q04DX003 (ip), vehicle: saline with Tween-80) was 97 % of control.

In the case of `O=C1OC(=O)C2C1C1C3C=CC3C1C21C=C1` (centres undefined), the T/C [8] is reported as 87 % of control and the T/C [9] is reported as 87 % of control.

`O=C(Nc1ccc(N=C=S)cc1Cl)c1cc(Cl)cc(Cl)c1O` was tested, and the T/C [14] was 104 % of control, the T/C [15] was 102 % of control and 111 % of control and the T/C [16] was 110 % of control and 111 % of control. The T/C [17] was 108 % of control and 118 % of control.

In the case of `COC(=O)c1c(C)cc(OC(=O)c2c(C)c(Cl)c(O)c(Cl)c2O)cc1O`, the T/C (dose: 5.0 mg/kg/injection, schedule: Q01DX009 (ip), vehicle: Klucel (hydroxypropylcellulose) (HPC)) is reported as 97 % of control, the T/C (dose: 10.0 mg/kg/injection, schedule: Q01DX009 (ip), vehicle: Klucel (hydroxypropylcellulose) (HPC)) is reported as 94 % of control and the T/C (dose: 20.0 mg/kg/injection, schedule: Q01DX009 (ip), vehicle: Klucel (hydroxypropylcellulose) (HPC)) is reported as 100 % of control.

For `Cc1c([N+](=O)[O-])cc2c(c1[N+](=O)[O-])C(C)(C)CC2(C)C`, the T/C [6] was 95 % of control, the T/C [7] was 86 % of control and the T/C (dose: 400.0 mg/kg/injection, schedule: Q01DX009 (ip), vehicle: saline with Tween-80) was 90 % of control.

`OCC1OC(Oc2ccc(O)cc2)C(O)C(O)C1O` (centres undefined) was tested, and the T/C [2] was 100 % of control, the T/C [3] was 99 % of control and the T/C [4] was 96 % of control. The T/C [5] was 101 % of control.

`Nc1nc2c(ncn2C2OC(CO)C(O)C2O)c(=O)[nH]1.Nc1nc2c(ncn2C2OC(CO)C(O)C2O)c(=O)[nH]1.[NH2-].[NH2-].[Pt+2]` (centres undefined) was tested, and the T/C (dose: 6.25 mg/kg/injection, schedule: Q01DX009 (ip), vehicle: water) was 100 % of control and 108 % of control, the T/C (dose: 12.5 mg/kg/injection, schedule: Q01DX009 (ip), vehicle: water) was 98 % of control and 114 % of control and the T/C (dose: 25.0 mg/kg/injection, schedule: Q01DX009 (ip), vehicle: water) was 117 % of control. The T/C (dose: 50.0 mg/kg/injection, schedule: Q01DX009 (ip), vehicle: water) was 109 % of control, the T/C (dose: 100.0 mg/kg/injection, schedule: Q01DX009 (ip), vehicle: water) was 160 % of control and the T/C (dose: 200.0 mg/kg/injection, schedule: Q01DX009 (ip), vehicle: water) was 151 % of control and 170 % of control.
